This note sets out measurements from the supplement of paper PMC11061612.

Common to all, as to test: Bliss excess, mean over the matrix (fraction); higher = more synergy
For experiment [1], the system named is L-428 (Hodgkin's Lymphoma). The method, boiled down:
(§1)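 Cell lines in DMEM/F12 or RPMI with 10% FBS were plated in 1536-well plates, held 24 hours at 37°C, 5% CO2, then given two-drug dose matrices for 72 hours (DMSO typically 0.2%). Viability was read by CellTiter-Glo 2.0 luminescence and scaled as inhibition from 0 (vehicle wells) to 1 (blank wells). Combination Emax is the second-highest inhibition in the matrix; Bliss excess is observed combination effect minus expected EA + EB − EA·EB, EA and EB being single-agent effects.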

Experiment [2] has as its system NCI-H1568 (Lung Adenocarcinoma). The procedure, abridged:
as §1

For experiment [3], the system named is GAMG (Glioblastoma). The procedure, abridged: as §1
The subject of experiment [4] is SNU-449 (Hepatocellular Carcinoma). The method, boiled down:
as §1

The subject of experiment [5] is OE21 (Esophageal Squamous Cell Carcinoma). The procedure, abridged:
as §1

Experiment [6] concerns BE2-M17 (Neuroblastoma). The method, boiled down:
as §1

The test system of experiment [7] is LS-123 (Colorectal Carcinoma). The method, boiled down: as §1
For experiment [8], the system named is NCI-H209 (Small Cell Lung Carcinoma). The procedure, abridged:
as §1

Experiment [9] relates to HuH-7 (Hepatocellular Carcinoma). The procedure, abridged:
as §1

Experiment [10] concerns BE-13 (T-Lymphoblastic Leukemia). The method, boiled down: as §1
For experiment [11], the system named is CAL-72 (Osteosarcoma). The procedure, abridged: as §1
For experiment [12], the system named is TGBC1TKB (Biliary Tract Carcinoma). The method, boiled down: as §1
The test system of experiment [13] is CAL-33 (Oral Cavity Carcinoma). The method, boiled down: as §1
Experiment [14] concerns NCI-H2722 (Mesothelioma). The method, boiled down:
as §1

Experiment [15] relates to EW-11 (Ewing's Sarcoma). The procedure, abridged:
as §1

Experiment [16] concerns KS-1 (Glioblastoma). The method, boiled down: as §1
The test system of experiment [17] is MHH-CALL-2 (B-Lymphoblastic Leukemia). The procedure, abridged:
as §1

In experiment [18] the test system is HeLa (Cervical Carcinoma). The procedure, abridged:
as §1

The subject of experiment [19] is SNU-16 (Gastric Carcinoma). The method, boiled down:
as §1

The test system of experiment [20] is NCI-H524 (Small Cell Lung Carcinoma). The method, boiled down: as §1

With `Cn1cnc2c(F)c(Nc3ccc(Br)cc3Cl)c(C(=O)NOCCO)cc21` [Selumetinib] + CC(C)n1c(=O)n(C)c2cnc3cc(F)c(-c4ccc(OCCCN5CCCCC5)nc4)cc3c21 [AZD1390] (first compound max 10 µM, 7x7, partner max 0.3 µM), the Bliss excess in experiment [1] was -0.0231; in experiment [2], -0.0508; in experiment [3], -0.0242; in experiment [4] it was -0.0464; in experiment [5] it was 0.014; in [6], -0.0293. The Bliss excess in [7] was 0.0194; in experiment [8], -0.037; in experiment [9], -0.0205; in [10], -0.0283; in experiment [11] it was -0.0484; in [12], -0.0157. For the same compound, the Bliss excess was 0.0649 in experiment [13]; -0.0678 in experiment [14]; -0.0399 in experiment [15]; -0.0384 in [16]; 0.0042 in experiment [17]; -0.0437 in [18]. Further, the Bliss excess in experiment [19] is -0.0185; in [20] it was -0.0286.
On to `CC1(C)CCC(CN2CCN(c3ccc(C(=O)NS(=O)(=O)c4ccc(NCC5CCOCC5)c([N+](=O)[O-])c4)c(Oc4cnc5[nH]ccc5c4)c3)CC2)=C(c2ccc(Cl)cc2)C1` [Venetoclax] + C1CN(CCC1(C(=O)N[C@@H](CCO)C2=CC=C(C=C2)Cl)N)C3=NC=NC4=C3C=CN4 [Capivasertib] (first compound max 1 µM, 7x7, partner max 3 µM), for which the Bliss excess was -0.0577 in [1]; -0.0306 in experiment [2]; -0.0185 in experiment [3]; -0.075 in [4]; -0.009 in [5]; -0.0682 in [6]. Besides, the Bliss excess in experiment [7] is -0.0134; in experiment [8] it was -0.0005; in experiment [9], -0.0537; in experiment [10] it was -0.0684; in [11] it was -0.04; in [12], -0.0535. In addition, the Bliss excess in [13] was 0.0084; in [14], -0.0671; in experiment [15] it was -0.0335; in experiment [16], -0.0161; in [17], -0.0702; in [18], -0.0669. Moreover, the Bliss excess in experiment [19] is -0.0496; in experiment [20], -0.0624.
`CC(=O)c1c(C)c2cnc(Nc3ccc(N4CCNCC4)cn3)nc2n(C2CCCC2)c1=O` [Palbociclib] + Cn1cnc2c(F)c(Nc3ccc(Br)cc3Cl)c(C(=O)NOCCO)cc21 [Selumetinib] (first compound max 10 µM, 7x7, partner max 10 µM): the Bliss excess was -0.0083 in experiment [1]; -0.109 in experiment [2]; -0.0072 in [3]; -0.0006 in [4]; 0.0877 in experiment [5]; -0.0339 in [6]. Besides, the Bliss excess is 0.002 in [7]; -0.0528 in experiment [8]; -0.0584 in experiment [9]; -0.0003 in [10]; 0.0683 in experiment [11]; -0.0251 in experiment [12]. For the same compound, the Bliss excess in experiment [13] is 0.0345; in experiment [14], -0.069; in [15], -0.0298; in experiment [16], -0.0012; in [17] it was -0.0407; in experiment [18], -0.0499. Besides, the Bliss excess in experiment [19] was 0.0339; in [20], -0.0403.
Turning to `Cn1cnc2c(F)c(Nc3ccc(Br)cc3Cl)c(C(=O)NOCCO)cc21` [Selumetinib] + C=CCn1c(=O)c2cnc(Nc3ccc(N4CCN(C)CC4)cc3)nc2n1-c1cccc(C(C)(C)O)n1 [AZD1775] (first compound max 10 µM, partner max 1 µM), the Bliss excess in [1] was -0.0744; in experiment [2], -0.0331; in experiment [3] it was 0.0063; in experiment [4] it was -0.0413; in [5], -0.0399; in experiment [6] it was -0.11. The Bliss excess in [7] is 0.0099; in [8] it was -0.0211; in [9], -0.0509; in [10], -0.0423; in experiment [11], -0.117; in experiment [12], 0.0366. For the same compound, the Bliss excess in experiment [13] was -0.0194; in experiment [14], -0.046; in experiment [15] it was -0.0464; in [16], -0.0037; in experiment [17], -0.0087; in experiment [18] it was -0.0826. In addition, the Bliss excess is 0.0433 in experiment [19] and -0.0452 in experiment [20].
As to `NC1(C(=O)N[C@@H](CCO)c2ccc(Cl)cc2)CCN(c2ncnc3[nH]ccc23)CC1` [Capivasertib] + CC(C)n1c(=O)n(C)c2cnc3cc(F)c(-c4ccc(OCCCN5CCCCC5)nc4)cc3c21 [AZD1390] (first compound max 10 µM, 7x7, partner max 0.3 µM), the Bliss excess in experiment [1] was -0.0352; in experiment [2] it was -0.0852; in [3], -0.0455; in [4], -0.038; in [5], -0.0474; in experiment [6] it was -0.115. The Bliss excess was -0.0493 in experiment [7]; -0.037 in experiment [8]; -0.045 in experiment [9]; -0.0455 in experiment [10]; -0.133 in experiment [11]; 0.004 in experiment [12]. The Bliss excess in [13] is -0.0018; in experiment [14], -0.0512; in experiment [15], -0.0438; in [16] it was -0.0969; in experiment [17], -0.0439; in [18], -0.0537. Moreover, the results for the Bliss excess in experiment [19] and in experiment [20] were -0.0034 and -0.0033, respectively.
Turning to `CC1(C)CCC(CN2CCN(c3ccc(C(=O)NS(=O)(=O)c4ccc(NCC5CCOCC5)c([N+](=O)[O-])c4)c(Oc4cnc5[nH]ccc5c4)c3)CC2)=C(c2ccc(Cl)cc2)C1` [Venetoclax] + Cc1cc2ncnn2cc1Nc1ncc2c(n1)n(C1CCOCC1)c(=O)n2C [AZD7648] (first compound max 1 µM, 7x7, partner max 10 µM), the Bliss excess in experiment [1] is -0.0548; in experiment [2], -0.0256; in experiment [3], -0.024; in [4] it was -0.0699; in experiment [5] it was -0.0076; in experiment [6], 0.0002. Besides, the Bliss excess in [7] was -0.0543; in experiment [8] it was 0.0416; in experiment [9], -0.022; in experiment [10] it was -0.0896; in experiment [11], -0.0713; in [12], -0.043. Also, the Bliss excess was 0.0043 in experiment [13]; -0.042 in experiment [14]; 0.0082 in experiment [15]; -0.0296 in [16]; -0.0228 in [17]; -0.0354 in experiment [18]. Moreover, the values for the Bliss excess in [19] and in experiment [20] were -0.0396 and -0.005, respectively.
